Reference: patent publication US20260182574A1 (priority 2022, published 2026)

Key:
Botrytis cinerea [1] = assay: Activity against the grey mold Botrytis cinerea in the microtiterplate test; type: cell-based; details: 31 ppm; microtiter plate, 405 nm, 7 days after inoculation
Corynespora zeae = assay: Activity against Corynespora zeae in the microtiterplate test; type: cell-based; details: 31 ppm; microtiter plate
Botrytis cinerea [2] = assay: Long lasting control of Botrytis cinerea on leaves of green pepper (green house); type: in vivo; details: 125 ppm; green pepper sprayed 7 days before inoculation; assessed after 5 days; untreated plants 90% infected
Method: (§1) The compound was dissolved in a mixture of acetone and/or dimethylsulfoxide and the wetting agent/emulsifier Wettol, which is based on ethoxylated alkylphenoles, in a ratio (volume) solvent-emulsifier of 99 to 1 to give a total volume of 5 ml. Subsequently, water was added to total volume of 100 ml.
(§2) This stock solution was then diluted with the described solvent-emulsifier-water mixture to the final concentration given in the table below.
Young seedlings of green pepper were grown in pots to the 4 to 5 leaf stage. These plants were sprayed to run-off with previously described spray solution, containing the concentration of active ingredient or mixture mentioned in the table below. The plants were then cultivated in the greenhouse for 7 days and then inoculated with an aqueous biomalt or DOB solution containing the spore suspension of Botrytis cinerea. Then the plants were immediately transferred to a humid chamber. After 5 days at 22 to 24 °C and a saturated relative humidity, the extent of fungal attack on the leaves was visually assessed as % diseased leaf area.

Sclerotinia sclerotiorum = assay: Preventative fungicidal control of white mold on cabbage caused by Sclerotinia sclerotiorum (green house); type: in vivo; details: 125 ppm; cabbage sprayed 1 day before inoculation; assessed after 8 days; untreated plants 80% infected
Method: as §1, §2
Cabagges were grown in pots to the 13 to 14 leaf stage. These plants were sprayed to run-off with previously described spray solution, containing the concentration of active ingredient or their mixture mentioned in the table below. The plants could air-dry. The next day the cabbage leaves were inoculated with 50 μl of a mixture of ground petals, methylcellulose, water, and yeast-bactopeptone media (includes spores of Sclerotinia sclerotiorum). After 8 days at 21° C. and a relative humidity of 60% the extent of fungal attack on the leaves were visually assessed as % diseased leaf area.

Cercospora sojina = assay: Activity against Cercospora sojina in the microtiterplate test; type: cell-based; details: 31 ppm; microtiter plate
[3] = test system: Corynespora cassiicola G413A mutant; assay: Activity against Corynespora cassiicola G413A mutant in the microtiterplate test; type: cell-based; details: 31 ppm; microtiter plate; G413A mutant isolates

| SMILES | growth of the pathogen (relative to compound-free control = 100%) (Botrytis cinerea [1]) [%] | growth of the pathogen (relative to compound-free control = 100%) (Corynespora zeae) [%] | growth of the pathogen (% diseased leaf area) (Botrytis cinerea [2]) | growth of the pathogen (% diseased leaf area) (Sclerotinia sclerotiorum) | growth of the pathogen (relative to compound-free control = 100%) (Cercospora sojina) [%] | growth of the pathogen (relative to compound-free control = 100%) [3] [%] |
| --- | --- | --- | --- | --- | --- | --- |
| CN1c2ccccc2C(c2cnc3c(F)cccc3c2)=NC(=O)C1(C)C [Ex-10] | 4 | 8 | – | – | – | – |
| CC1(C)C(=O)N=C(c2cnc3c(F)cccc3c2)c2ccccc2N1C#N [Ex-12] | 4 | – | – | – | – | – |
| CN1CC2(CC2)N=C(c2cnc3c(F)cccc3c2)c2cccc(F)c21 [Ex-17] | 4 | – | up to 15% | up to 8% | 6 | 11 |
